Measured values: patent US8986729B2, “Palatable suspending vehicle for pharmaceutical ingredients” (Fagron, Inc., priority 2004, dated 2015)
Where a name gives a salt, the structure may show the parent alone.

Legend:
[1] = Subjective rating of drug suspensions immediately after preparation (ease of preparation, homogeneity, viscosity); assay type: physicochemical; settings: for Homogeneity: scale 0-10, 0=drug settles completely and immediately, 10=consistently homogenous; for Viscosity: subjective scale 0-10, 0=water, 10=thick molasses; for phase separation of the suspending agent from the liquid phase: drug preparation in OO
Experimental: (§1) Suspensions of baclofen, bethanechol chloride, labetalol hydrochloride, verapamil hydrochloride, or ibuprofen were prepared in VE1 or OO. […] The wetted powder was incorporated into 50 ml VE1 or OO by geometric dilution and stored in individual non-opaque containers. […] The concentrations of the pharmaceutical compounds in suspension represent ‘typical’ prescribed preparations.
The suspensions were evaluated immediately after preparation with respect to ease of preparation, homogeneity, and viscosity by the pharmaceutical technician preparing the suspensions. The suspensions were rated on a subjective scale of 0-10: ease of preparation, 0=difficult, 10=very easy; homogeneity, 0=drug settles completely and immediately, 10=consistently homogenous in appearance along the vertical axis; viscosity, 0=water, 10=thick molasses.

[2] = Settling and resuspendability of drug suspensions after 7 days storage; assay type: physicochemical; settings: for Settling: 7 days, dark, room temperature, scale 0-10, 10=none, 0=all at bottom; for Resuspendability: after 7 days, moderate shaking, scale 0-10, 10=perfectly homogenous
Experimental: as §1
The suspensions were stored in the dark at room temperature for 7 days and then settling of the drugs and resuspendability of sedimented drug in OO or VE1 was evaluated. Settling and resuspendability of the drugs was rated on a subjective scale of 0-10: settling (how much product apparent at bottom of container, 10=none, 0=all); resuspendability (how homogenous does the product appear after moderate shaking, 10=perfectly homogenous, 0=not homogenous (heterogeneous)). Resuspendability of sedimented ingredients was evaluated after evaluation of settling. The suspensions were shaken deliberately (stepwise), with frequent inspections of the bottom of the container.

[3] = drug suspension in OO, listed as bethanechol chloride
[4] = drug suspension in OO, listed as ibuprofen
[5] = drug suspension in OO, hydrochloride
[6] = drug suspension in OO, listed as verapamil hydrochloride, hydrochloride

## NCC(CC(=O)O)c1ccc(Cl)cc1 (stereo not drawn) [Baclofen, baclofen]
[1]; drug suspension in OO
  Homogeneity: 9
  Viscosity: 6
[1]; drug suspension in VE1
  Homogeneity: 9
  Viscosity: 7
[2]; drug suspension in VE1
  Settling: 8
  Resuspendability: 9

## CC(C[N+](C)(C)C)OC(N)=O (stereo not drawn) [Bethanechol Chloride, bethanechol chloride]
[1]; drug suspension in OO
  Homogeneity: 9
  Viscosity: 5
[1]; drug suspension in VE1
  Homogeneity: 9
  Viscosity: 7
[2]; drug suspension in OO
  Settling: 6
  Resuspendability: 9
[2]; [3]
  Settling: minimal to moderate sedimentation
  Resuspendability: easily resuspended
[2]; drug suspension in VE1
  Settling: 8
  Resuspendability: 9

## CC(C)Cc1ccc(C(C)C(=O)O)cc1 (stereo not drawn) [Ibuprofen, ibuprofen]
[1]; drug suspension in OO
  Homogeneity: 9
  Viscosity: 4
[1]; drug suspension in VE1
  Homogeneity: 9
  Viscosity: 7
[2]; drug suspension in OO
  Settling: 7
  Resuspendability: 9
[2]; [4]
  Settling: minimal to moderate sedimentation
  Resuspendability: easily resuspended
[2]; drug suspension in VE1
  Settling: 8
  Resuspendability: 9

## CC(CCc1ccccc1)NCC(O)c1ccc(O)c(C(N)=O)c1 (stereo not drawn) [Labetalol Hydrochloride, labetalol hydrochloride]
[1]
  phase separation of the suspending agent from the liquid phase: phase separation
[1]; drug suspension in OO
  Homogeneity: 3
  Viscosity: 1
[1]; drug suspension in VE1
  Homogeneity: 9
  Viscosity: 7
[2]; [5]
  Settling: 2
  Resuspendability: 3
[2]; drug suspension in OO, listed as labetalol hydrochloride, hydrochloride
  Settling: large portion
[2]; drug suspension in OO, listed as Labetalol hydrochloride, hydrochloride
  Resuspendability: more difficult to resuspend
[2]; drug suspension in VE1
  Settling: 9
  Resuspendability: 9

## COc1ccc(CCN(C)CCCC(C#N)(c2ccc(OC)c(OC)c2)C(C)C)cc1OC (stereo not drawn) [Verapamil Hydrochloride, verapamil hydrochloride]
[1]
  phase separation of the suspending agent from the liquid phase: phase separation
[1]; drug suspension in OO
  Homogeneity: 8
  Viscosity: 2
[1]; drug suspension in VE1
  Homogeneity: 9
  Viscosity: 7
[2]; [5]
  Settling: 2
  Resuspendability: 6
[2]; [6]
  Settling: large portion
  Resuspendability: more difficult to resuspend
[2]; drug suspension in VE1
  Settling: 7
  Resuspendability: 9
